Source: patent publication US20090081143A1, “Extracts From Black Yeast For Whitening Skin” (priority 2007, published 2009)

Tested on: UV-B induced tan
Experiment: Whitening action: fading of UV-B induced tan on the backs of volunteers (Minolta Chromameter reflectance)
Format: in vivo, human
Details: FIG. 5; 1% extract or 2% kojic acid in Example 4 cream; 2 mg/cm^2 once a day; nine volunteers
Experimental: A comparative study is done to determine the whitening efficacy of an Exophiala mansonii-derived enzyme extract in comparison to the efficacy of a known tyrosinase inhibitor, kojic acid. More specifically, the study was designed to study the lightening effect of these materials (reduction in tanning) using the fading of UV-B induced tan as a marker. Two samples are prepared. The first sample contains the composition described in Example 4. The second sample has the same composition as that described in Example 4 except that 2% kojic acid is substituted for the 1% Exophiala mansonii enzyme extract. Nine volunteers participate in the study. The volunteer panelists are in normal health with no evidence of acute or chronic disease including dermatological problems. […] Tanning is observed for six days after irradiation at which point color measurements are made using a Minolta Chromameter which measures the difference in reflectance of the skin, L. The change in the value of the difference in reflectance, ΔL*, is measured against a baseline skin color value of untreated irradiated skin measured on day 6. […] The observed reflectance values for all the time points are recorded, and the area under the curve for each test site was calculated. The Whitening Factor is calculated as the area under the curve of the treated site subtracted from the untreated site, and is shown in FIG. 5.

## O=c1cc(CO)occ1O [kojic acid]
  Whitening Factor (area under the curve of the treated site subtracted from the untreated site): 1.8
